No end group written: not given here.
Columns and labels:
σ1R-BiP = target: T1, σ1R-BiP (Mus musculus, UniProt O55242); experiment: In vitro σ1R-BiP association of recombinant proteins (Western blot); type: biochemical; settings: for effect on σ1R-BiP association: increasing concentrations, 30 min RT, vs control without ligand
T1 construct: The coding region of the full-length murine σ1R (AF004927); GST (N, cleaved yes); host or cells: E. coli BL21 (KRX) for σ1R
Method: (§1) Figure 7 Effect of β-End 1–31, ^αN-acetyl β-End 1–31 and their N-terminal derivatives on σ1R-σ2R, σ1R-NR1 C1 and σ1R-BiP associations. Amino acid sequence of β-End 1–31 showing derivatives 1–26 and 1–27. (A) HaloLink-attached σ2Rs were incubated for 30 min at RT in the presence of σ1Rs (100 nM) in 300 μL of 50 mM Tris-HCl (pH 7.4), 0.2% CHAPS, and 2.5 mM CaCl2. After removing the unbound σ1R proteins, the effects of increasing the peptide concentrations on σ1R-σ2R associations were studied. At the end of the incubation, protein complexes bound to HaloLink-σ2R were obtained by centrifugation, washed three times, solubilized in 2× Laemmli buffer containing β-mercaptoethanol, resolved by SDS-PAGE, and analyzed by Western blotting (for more details, see Section 4). This protocol was also used to assess the effect of ligands on (B) σ1R-NR1 C1 and (C) σ1R-BiP associations. Data were compared to that of the control, which was obtained in the absence of ligands. (A–C) Data are the mean ± SD, n = 3. (D) The β-End 1–31 structural models were predicted by Novafold (DNASTAR Lasergene protein v.17, Inc., Madison, WI, USA). Ribbon model: The 3D structure, charge distribution and hydrophobicity map of β-End 1–31 are shown. Positive charges are shown in red and negative charges in blue. Polar surfaces are shown in yellow, and nonpolar surfaces are shown in orange. Linear model: the opioid (1–5) and flexible region (8–11) sequences are shown in green and orange, respectively, and the amphiphilic helix (15–25) is shown in pink.
(§2) The recombinant σ1R (100 nM) was incubated either with Haloprotein (negative control) or together with the immobilized σ2R, NR1 C0-C1-C2 or BiP proteins in 300 µL of a buffer containing 50 mM Tris-HCl (pH 7.4) and 0.2% CHAPS in the presence of 2.5 mM CaCl2 for 30 min at RT. After removal of the unbound σ1R, the agarose-attached complexes were incubated for 30 min with rotation at RT in the presence of increasing concentrations of the ligands in a final reaction volume of 300 µL [50 mM Tris-HCl (pH 7.4), 2.5 mM CaCl2 and 0.2% CHAPS]. Ligands were usually dissolved in aqueous solutions; however, when an organic solvent such as DMSO was required to incorporate, e.g., pregnenolone sulfate, the solvent remained below 1% in the assay buffer. Agarose pellets containing the bound proteins were obtained by centrifugation, washed and resuspended thrice in the presence of 2.5 mM CaCl2, solubilized in 2× Laemmli buffer plus β-mercaptoethanol, and analyzed by Western blotting.
(§3) Because all the assays were performed with recombinant proteins, the immune signals provided a single band of the expected size, which was used for the subsequent densitometry analysis. Accordingly, no other regions of the blots provided information and were routinely excluded from the analysis.
Figure S8. Effect of the physiological and nonphysiological sequences of β-End 1-31 and classical σ1R ligands on BiP-σ1R, σ2R-σ1R and NR1 C1-σ1R associations . Agarose-BiP was loaded with σ1Rs, and after the unbound σ1Rs were removed, the agarose-BiP-σ1R complexes were incubated in the absence (control) and presence of increasing concentrations of (A) β-End 1-31 C-terminal physiological derivatives and (B) classical σ1R ligands. C) Agarose-σ2R loaded with σ1Rs was incubated in the absence (control) and with nonphysiological derivatives of β-End 1-31. D) Agarose-NR1 C1 loaded with σ1Rs were incubated in the absence (control) and with nonphysiological derivatives of β-End 1-31. A-D) The σ1Rs that remained attached to the agarose complexes were evaluated by Western blotting. The […]
(§4) (1 picture or pasted object on this page, not shown here)
Figure S10. Effect of σ1R agonist/antagonist ligands on σ1R-BiP associations. Agarose-attached BiP proteins were incubated for 30 min in the presence of recombinant σ1R (100 nM) proteins in 300 μL of 50 mM Tris-HCl (pH 7.4), 0.2% CHAPS, and 2.5 mM CaCl2. After the unbound σ1R proteins were […]

σ1R-σ2R = σ1R-σ2R (Mus musculus, UniProt O55242); experiment: In vitro σ1R-σ2R association of recombinant proteins (HaloLink-σ2R, Western blot); type: biochemical, murine; set-up: The coding region of the full-length murine σ1R (AF004927); GST (N, cleaved yes); made in house; host or cells: E. coli BL21 (KRX); settings: increasing concentrations; 30 min RT; vs control without ligand
Method: as §1, §2, §3
Figure S7. Effect of σ1R agonist/antagonist ligands on σ1R-σ2R heterodimers. (A-C) Agarose (Θ)- attached σ2Rs captured recombinant σ1Rs. After removing unbound σ1R proteins, the Θ-σ2R.σ1R complexes were incubated with a ﬁxed concentration of a selected L1 ligand (indicated in brackets) in the absence and presence of increasing concentrations of competing σ1R ligands as indicated. The σ1Rs that remained attached to the Θ-σ2Rs were evaluated by Western blotting. * Signiﬁcant differences with respect to the control group that was incubated without L1 ligands. ANOVA followed by the Holm-Sidak multiple comparisons test, p < 0.05. For details, see Methods and Figure 6A. Representative blots are […]
Figure S8. Effect of the physiological and nonphysiological sequences of β-End 1-31 and classical σ1R ligands on BiP-σ1R, σ2R-σ1R and NR1 C1-σ1R associations . Agarose-BiP was loaded with σ1Rs, and after the unbound σ1Rs were removed, the agarose-BiP-σ1R complexes were incubated in the absence (control) and presence of increasing concentrations of (A) β-End 1-31 C-terminal physiological derivatives and (B) classical σ1R ligands. C) Agarose-σ2R loaded with σ1Rs was incubated in the […]

σ1R-NR1 C1 = target: T2, σ1R-NR1 C1 (Mus musculus, UniProt O55242); experiment: In vitro σ1R-NR1 C1 association of recombinant proteins (Western blot); type: biochemical, murine; settings: increasing concentrations; 30 min RT; vs control without ligand
T2 construct: The coding region of the full-length murine σ1R (AF004927); GST (N, cleaved yes); made in house; host or cells: E. coli BL21 (KRX)
Method: as §1, §2, §3
Figure S8. Effect of the physiological and nonphysiological sequences of β-End 1-31 and classical σ1R ligands on BiP-σ1R, σ2R-σ1R and NR1 C1-σ1R associations . […]
D) Agarose-NR1 C1 loaded with […]
σ1Rs were incubated in the absence (control) and with nonphysiological derivatives of β-End 1-31. A-D) The σ1Rs that remained attached to the agarose complexes were evaluated by Western blotting. The […]
as §4
Figure S9. Effect of σ1R agonist/antagonist ligands on σ1R-NR1 C1 associations. Θ-Agarose-NR1 C1 was loaded with recombinant σ1Rs. After unbound σ1R proteins were removed, the complexes were incubated with (A) 1 nM β-End 1-31, (B) αN-acetyl β-End 1-31, (C-D) β-End 28-31 in the absence (black columns) and presence of (A) 10 nM or (B-D) increasing concentrations of competing σ1R ligands as indicated. The σ1Rs that remained attached to the Θ-σ2Rs were evaluated by Western blotting. The […]
Prog is progesterone; PregSulfate is pregnenolone sulfate; Nac is […]

T2 sequence (O55242 whole entry): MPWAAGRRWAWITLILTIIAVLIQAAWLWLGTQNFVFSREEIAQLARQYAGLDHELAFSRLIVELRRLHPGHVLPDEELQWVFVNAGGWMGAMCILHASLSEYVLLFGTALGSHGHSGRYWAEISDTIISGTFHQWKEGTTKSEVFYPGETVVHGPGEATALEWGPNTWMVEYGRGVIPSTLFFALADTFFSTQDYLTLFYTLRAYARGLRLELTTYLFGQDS
T1 sequence (O55242 whole entry): as above
σ1R-σ2R, sequence (O55242 whole entry): as above

Compound	effect on σ1R-BiP association (σ1R-BiP)	effect on σ1R-σ2R association (σ1R-σ2R)	effect on σ1R-NR1 C1 association (σ1R-NR1 C1)	activity at σ1R-BiP against agonists / β-End 1–31 (σ1R-BiP; 1 nM β-End 1–31 with increasing competitor (Figure S10))
Pregnenolone sulfate [reference compound]	impaired σ1R associations with σ2R and BiP	impaired σ1R associations with σ2R and BiP	increased σ1R-NR1 C1 complexes	
CC(=O)[C@H]1CC[C@H]2[C@@H]3CCC4=CC(=O)CC[C@]4(C)[C@H]3CC[C@]12C [progesterone, Progesterone, reference compound]	did the opposite	did the opposite	did the opposite	
^αN-acetyl β-End 1–26: ^αN-acetylated form of β-End 1–26 (Ac-YGGFMTSEKSQTPLVTLFKNAIIKNA; UniProt P01189 237-262, looked up, fragment)	promoted σ1R-BiP complexes		separated σ1Rs from NR1 C1 subunits at pM concentrations	antagonist activity

From publication PMC9820303, “^αN-Acetyl β-Endorphin Is an Endogenous Ligand of σ1Rs That Regulates Mu-Opioid Receptor Signaling by Exchanging G Proteins for σ2Rs in σ1R Oligomers” (International Journal of Molecular Sciences, 2022)
